Tests used:
Format in all cases: in vivo
[1] = tested on: rapeseed; experiment: Test Example 4: effect on crop by soil treatment (symbol g); conditions: application herbicide amount 320 g/ha
Method in brief: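 Steps: fill box with sterilized diluvial soil; sow seed spot-like; cover with ~1.5 cm soil; grow in greenhouse (25° C. to 30° C.).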

[2] = tested on: Avena fatua; experiment: Test Example 5: herbicidal effect by foliage application, plastic box (symbol I); conditions: 320 g/ha, 3 weeks after application
Method in brief: (§1)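 Seeds were sown in sterilized diluvial soil, covered with about 1.5 cm of soil and grown 14 days in a greenhouse at 25° C. to 30° C. An emulsifiable formulation diluted in water to a set rate was sprayed over foliage, and injury was scored 3 weeks later.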

[3] = tested on: Amaranthus retroflexus; experiment: Test Example 5: herbicidal effect by foliage application, plastic box (symbol N); conditions: 320 g/ha, 3 weeks after application
Method in brief: as §1

[4] = tested on: Apera spica-venti; experiment: Test Example 4: herbicidal effect by soil treatment (symbol L); conditions: application herbicide amount 320 g/ha
Method in brief: (§2)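 Seeds were sown in sterilized diluvial soil, covered with about 1.5 cm of soil, and the soil surface was sprayed with a water-diluted emulsion of the compound at a predetermined rate. Plants grew in a greenhouse at 25° C. to 30° C.; effects were scored visually 3 weeks after application.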

[5] = tested on: Amaranthus retroflexus; experiment: Test Example 4: herbicidal effect by soil treatment (symbol N); conditions: application herbicide amount 320 g/ha
Method in brief: as §2

[6] = tested on: Cyperus difformis; experiment: Test Example 3: herbicidal effect by foliage application, Wagner pot (symbol E); conditions: application herbicide amount 320 g/ha
Method in brief: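 In a shallow-flooded alluvial soil system held at 25–30 °C, plants including rice grew for 14 days and were then sprayed over the foliage with emulsion diluted to a fixed herbicide amount. Visual rating followed at 3 weeks.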

[7] = tested on: Echinochloa oryzacola Vasing.; experiment: Test Example 1: herbicidal activity, application before weed generation in submerged conditions (symbol A); conditions: application herbicide amount 320 g/ha
Method in brief: (§3)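 Flooded alluvial soil (4 cm water) was mixed-sown with the three weed species, and 2.5-leaf rice seedlings were transplanted. On sowing day, a water-diluted emulsion at a predetermined rate was applied to the water surface. After 3 weeks in a 25–30 °C greenhouse, effect was scored 0–5.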

[8] = tested on: Monochoria vaginalis; experiment: Test Example 1: herbicidal activity, application before weed generation in submerged conditions (symbol C); conditions: application herbicide amount 320 g/ha
Method in brief: as §3

[9] = tested on: Alopecurus myosuroides; experiment: Test Example 5: herbicidal effect by foliage application, plastic box (symbol J); conditions: 320 g/ha, 3 weeks after application
Method in brief: as §1

[10] = tested on: Digitaria ciliaris; experiment: Test Example 4: herbicidal effect by soil treatment (symbol F); conditions: application herbicide amount 320 g/ha
Method in brief: as §2

[11] = tested on: Galium spurium; experiment: Test Example 5: herbicidal effect by foliage application, plastic box (symbol Q); conditions: 320 g/ha, 3 weeks after application
Method in brief: as §1

[12] = tested on: Echinochloa crus-galli var. crus-galli; experiment: Test Example 5: herbicidal effect by foliage application, plastic box (symbol H); conditions: 320 g/ha, 3 weeks after application
Method in brief: as §1

[13] = tested on: directly sowed rice plant; experiment: Test Example 3: effect on crop by foliage application, Wagner pot (symbol b); conditions: application herbicide amount 320 g/ha
Method in brief: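 Alluvial soil in a 1/10000-are Wagner pot was flooded to a water depth of 0.1–0.5 cm. Echinochloa crus-galli var. crus-galli, Leptochloa chinensis, Cyperus difformis and rice were sown into it and grown in a greenhouse at 25–30 °C.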

[14] = tested on: Monochoria vaginalis; experiment: Test Example 2: herbicidal activity, application during weed generation in submerged conditions (symbol C); conditions: Table 23; application herbicide amount 320 g/ha; grade 0-5 by criteria of Test Example 1
Method in brief: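 Compound was applied as a water-diluted emulsion into the standing water of flooded pots (4 cm) once co-sown weeds reached one to two leaves. Greenhouse temperature was 25° C. to 30° C., soil was alluvial, and each species was rated visually after 3 weeks.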

Compound	g (rapeseed) effect on crop grade [1]	I: Avena fatua, herbicidal effect grade [2]	N: Amaranthus retroflexus, herbicidal effect grade [3]	L (Apera spica-venti) herbicidal effect grade [4]	N (Amaranthus retroflexus) herbicidal effect grade [5]	herbicidal effect on E, grade 0-5 [6]	Herbicidal effect grade, A: Echinochloa oryzacola Vasing. [7]	Herbicidal effect grade, C: Monochoria vaginalis [8]	J: Alopecurus myosuroides, herbicidal effect grade [9]	F (Digitaria ciliaris) herbicidal effect grade [10]	Q: Galium spurium, herbicidal effect grade [11]	H: Echinochloa crus-galli var. crus-galli, herbicidal effect grade [12]	effect on crop b (directly sowed rice plant), grade 0-5 [13]	Herbicidal effect grade, C: Monochoria vaginalis [14]	I: Avena fatua, herbicidal effect (criteria 0-5) [2]	N: Amaranthus retroflexus, herbicidal effect (criteria 0-5) [3]	J: Alopecurus myosuroides, herbicidal effect (criteria 0-5) [9]	H: Echinochloa crus-galli var. crus-galli, herbicidal effect (criteria 0-5) [12]	other results
CON=C(C)CC1CC(OC(=O)COc2ccccc2[N+](=O)[O-])=C(c2c(C)cc(C)cc2C)C1=O (stereo not drawn) [1-071]	4 (Herbicidal ratio of 70% or higher and lower than 90%)	5 (Herbicidal ratio of 90% or more (almost completely withered))	0 (Herbicidal ratio of 5% or lower (almost no effect))	5 (Herbicidal ratio of 90% or more (almost completely withered))	4 (Herbicidal ratio of 70% or higher and lower than 90%)	5 (Herbicidal ratio of 90% or more (almost completely withered))	5 (Herbicidal ratio of 90% or more (almost completely withered))	0 (Herbicidal ratio of 5% or lower (almost no effect))	5 (Herbicidal ratio of 90% or more (almost completely withered))	5 (Herbicidal ratio of 90% or more (almost completely withered))	2 (Herbicidal ratio of 20% or higher and lower than 40%)	5 (Herbicidal ratio of 90% or more (almost completely withered))	5 (Herbicidal ratio of 90% or more (almost completely withered))	–	–	–	–	–	–
CC(CC1CC(O)=C(c2c(C)cc(Br)cc2C)C1=O)=NOCC(=O)N(C)C (mixture of isomers) [9-029]	–	5 (Herbicidal ratio of 90% or more (almost completely withered))	0 (Herbicidal ratio of 5% or lower (almost no effect))	–	–	–	–	–	1 (Herbicidal ratio of 5% or higher and lower than 20%)	–	0 (Herbicidal ratio of 5% or lower (almost no effect))	3 (Herbicidal ratio of 40% or higher and lower than 70%)	–	0 (Herbicidal ratio of 5% or lower (almost no effect))	–	–	–	–	Effect on crop grade, g: rapeseed [1]: 0 (Herbicidal ratio of 5% or lower (almost no effect)); Herbicidal effect grade, N: Amaranthus retroflexus [5]: 0 (Herbicidal ratio of 5% or lower (almost no effect)); Herbicidal effect grade, F: Digitaria ciliaris [10]: 3 (Herbicidal ratio of 40% or higher and lower than 70%); b (directly sowed rice plant) effect on crop grade ([13]; Table 24): 3 (Herbicidal ratio of 40% or higher and lower than 70%)
CON=C(C)CC1CC(OC(=O)COc2ccc(Cl)cc2Cl)=C(c2c(C)cc(C)cc2C)C1=O (stereo not drawn) [1-075]	–	–	–	5 (Herbicidal ratio of 90% or more (almost completely withered))	5 (Herbicidal ratio of 90% or more (almost completely withered))	5 (Herbicidal ratio of 90% or more (almost completely withered))	5 (Herbicidal ratio of 90% or more (almost completely withered))	–	–	5 (Herbicidal ratio of 90% or more (almost completely withered))	–	–	5 (Herbicidal ratio of 90% or more (almost completely withered))	–	5 (Herbicidal ratio of 90% or more (almost completely withered))	4 (Herbicidal ratio of 70% or higher and lower than 90%)	5 (Herbicidal ratio of 90% or more (almost completely withered))	5 (Herbicidal ratio of 90% or more (almost completely withered))	Q: Galium spurium, herbicidal effect (criteria 0-5) [11]: 0 (Herbicidal ratio of 5% or lower (almost no effect))
CON=C(C)CC1CC(OC(=O)COc2ccc(F)cc2)=C(c2c(C)cc(C)cc2C)C1=O (stereo not drawn) [1-073]	4 (Herbicidal ratio of 70% or higher and lower than 90%)	–	–	5 (Herbicidal ratio of 90% or more (almost completely withered))	5 (Herbicidal ratio of 90% or more (almost completely withered))	5 (Herbicidal ratio of 90% or more (almost completely withered))	5 (Herbicidal ratio of 90% or more (almost completely withered))	1 (Herbicidal ratio of 5% or higher and lower than 20%)	–	5 (Herbicidal ratio of 90% or more (almost completely withered))	–	–	5 (Herbicidal ratio of 90% or more (almost completely withered))	2 (Herbicidal ratio of 20% or higher and lower than 40%)	5 (Herbicidal ratio of 90% or more (almost completely withered))	2 (Herbicidal ratio of 20% or higher and lower than 40%)	5 (Herbicidal ratio of 90% or more (almost completely withered))	5 (Herbicidal ratio of 90% or more (almost completely withered))	–
CON=C(C)CC1CC(OC(=O)CCC2CCCCC2)=C(c2c(C)cc(C)cc2C)C1=O (stereo not drawn) [1-035]	5 (Herbicidal ratio of 90% or more (almost completely withered))	5 (Herbicidal ratio of 90% or more (almost completely withered))	3 (Herbicidal ratio of 40% or higher and lower than 70%)	5 (Herbicidal ratio of 90% or more (almost completely withered))	5 (Herbicidal ratio of 90% or more (almost completely withered))	5 (Herbicidal ratio of 90% or more (almost completely withered))	5 (Herbicidal ratio of 90% or more (almost completely withered))	2 (Herbicidal ratio of 20% or higher and lower than 40%)	5 (Herbicidal ratio of 90% or more (almost completely withered))	5 (Herbicidal ratio of 90% or more (almost completely withered))	–	5 (Herbicidal ratio of 90% or more (almost completely withered))	5 (Herbicidal ratio of 90% or more (almost completely withered))	4 (Herbicidal ratio of 70% or higher and lower than 90%)	–	–	–	–	–
